Experimental data taken from patent US20230220347A1, “SCALING UP MYOGENIC TISSUE: LATE PASSAGE MYOGENICITY” (Upside Foods, Inc., priority 2021, published 2023).
“Also recorded” adds a separate entry of the source.

Test system: late passage TERT-immortalized 7A chicken fibroblasts stably transfected with ggMYOD
Assay: Myotube formation (MyHC staining) of late passage 7A TERT ggMYOD fibroblasts in different media
Format: cell-based
Settings: 7A TERT ggMyoD cells, PDL >100; sodium butyrate 0.1 mM added to ME9
Procedure: This experiment was designed to assess expression of endogenous downstream myogenic factors (ggMyoG, ggMYMK, and ggMyHC1e) following transfection with a vector encoding ggMYOD in late passage (PDL >100) immortalized fibroblast cells compared to primary fibroblasts. TERT-immortalized 7A fibroblasts were cultured for PDL >100 prior to transfection. For these experiments, a vector including a PGK promoter driving expression of a nucleic acid sequence encoding ggMYOD was transfected into TERT-immortalized 7A chicken fibroblasts (“7A TERT”) or primary fibroblasts using Lipofectamine 3000. Each vector included a puromycin selection cassette to enable selection. Following transfection and selection (0.5 mg/mL puromycin for 4 days), fibroblasts were exposed either to differentiation media (i.e., DMEM/F-12, 2% horse serum) or proliferation media (i.e., ME9; referred to as “undifferentiated” sample (see also culture medias described in FIG. 2)) prior to being assessed for myogenic marker expression using qPCR.
To assess whether the late passage immortalized 7A chicken fibroblasts could be induced to form myotubes, the late passage immortalized 7A chicken fibroblasts stably transfected with ggMYOD (as described above; referred to as 7A TERT ggMYOD) were cultured in media: ME58, ME9, and ME9+0.1 mM sodium butyrate. In FIGS. 13A-C MyHC staining was used to aid identification of myotubes.

For CCCC(=O)[O-].[Na+] [sodium butyrate], the “differentiation capacity (myotube formation, MyHC staining)” value was “dramatic improvement in differentiation capacity; also recorded: significant increase in myogenic differentiation capacity”.
